US20230129034A1, “TREATMENT OF DISEASE WITH ESTERS OF SELECTIVE RXR AGONISTS” (Io Therapeutics, Inc., priority 2017, published 2023)

Columns and labels:
[1] = Cmax after oral doses of IRX4204; conditions: in vivo, 24 mg/m2; oral doses of 24 mg/m^2/day
[2] = Thyroid function in human subjects treated with IRX4204; assay type: in vivo
[3] = tested on: oligodendrocyte differentiation and remyelination; test: In vitro measures of oligodendrocyte differentiation and remyelination; assay type: cell-based
RARβ [4] = target: T1, RARβ (Homo sapiens, UniProt P10826); test: RAR transactivation assay (ER-RAR fusion, ERE-tk-Luc reporter, CV-1 cells); assay type: cell-based; conditions: 20 hours, luciferase activity
T1 construct: expressed in transfected cells; host or cells: CV-1
From the text: (§1) Data are mean values ± SE from five independent experiments.
T1 sequence (P10826 183-417 limits assumed, species assumed): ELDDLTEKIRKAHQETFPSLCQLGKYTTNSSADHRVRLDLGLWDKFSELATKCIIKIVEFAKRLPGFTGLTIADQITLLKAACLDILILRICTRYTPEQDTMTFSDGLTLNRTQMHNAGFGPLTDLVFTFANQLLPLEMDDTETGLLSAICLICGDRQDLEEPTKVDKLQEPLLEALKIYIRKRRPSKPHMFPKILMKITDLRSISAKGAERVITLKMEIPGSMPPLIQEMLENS

RARγ [5] = target: T2, RARγ (Homo sapiens, UniProt P13631); test: as above; assay type: cell-based; conditions: 20 hours, luciferase activity
T2 construct: expressed in transfected cells; host or cells: CV-1
From the text: as §1
T2 sequence (P13631 185-419 limits assumed, species assumed): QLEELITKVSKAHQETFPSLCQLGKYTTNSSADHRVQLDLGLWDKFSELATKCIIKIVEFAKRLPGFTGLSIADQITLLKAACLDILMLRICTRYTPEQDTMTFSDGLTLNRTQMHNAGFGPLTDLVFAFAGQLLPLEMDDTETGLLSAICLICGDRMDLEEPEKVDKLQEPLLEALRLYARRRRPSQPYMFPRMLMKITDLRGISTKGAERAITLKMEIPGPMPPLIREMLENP

RXRα = target: T3, RXRα (Homo sapiens, UniProt P19793); test: Competitive displacement of [3H]-9CRA from purified receptor; conditions: 10 nM [3H]-9CRA; read-out: RXR Binding Affinity Ki (nM) RXRα
T3 construct: an expression construct including a full length RXRα, RXRβ, or RXRy; expressed in transfected cells; host or cells: CV-1
T3 sequence (P19793 1-462): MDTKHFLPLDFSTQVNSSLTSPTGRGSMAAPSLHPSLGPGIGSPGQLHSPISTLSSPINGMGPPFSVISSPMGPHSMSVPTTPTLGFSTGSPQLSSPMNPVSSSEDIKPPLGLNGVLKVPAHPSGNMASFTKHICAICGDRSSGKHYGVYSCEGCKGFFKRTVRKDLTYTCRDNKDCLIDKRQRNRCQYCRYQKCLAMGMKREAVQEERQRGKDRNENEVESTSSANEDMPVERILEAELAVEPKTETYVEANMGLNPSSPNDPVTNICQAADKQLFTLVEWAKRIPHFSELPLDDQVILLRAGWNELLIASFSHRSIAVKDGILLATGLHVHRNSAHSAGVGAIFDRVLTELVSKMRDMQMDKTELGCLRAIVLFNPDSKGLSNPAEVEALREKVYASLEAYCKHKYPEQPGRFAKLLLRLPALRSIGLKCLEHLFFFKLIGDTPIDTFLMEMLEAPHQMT
From the text: (§2) Standard errors (±) among independent experiments are indicated.

RXRβ = target: T4, RXRβ (Homo sapiens, UniProt P28702); test: as above; conditions: 10 nM [3H]-9CRA; read-out: RXR Binding Affinity Ki (nM) RXRβ
T4 construct: an expression construct including a full length RXRα, RXRβ, or RXRy; expressed in transfected cells; host or cells: CV-1
T4 sequence (P28702 1-533): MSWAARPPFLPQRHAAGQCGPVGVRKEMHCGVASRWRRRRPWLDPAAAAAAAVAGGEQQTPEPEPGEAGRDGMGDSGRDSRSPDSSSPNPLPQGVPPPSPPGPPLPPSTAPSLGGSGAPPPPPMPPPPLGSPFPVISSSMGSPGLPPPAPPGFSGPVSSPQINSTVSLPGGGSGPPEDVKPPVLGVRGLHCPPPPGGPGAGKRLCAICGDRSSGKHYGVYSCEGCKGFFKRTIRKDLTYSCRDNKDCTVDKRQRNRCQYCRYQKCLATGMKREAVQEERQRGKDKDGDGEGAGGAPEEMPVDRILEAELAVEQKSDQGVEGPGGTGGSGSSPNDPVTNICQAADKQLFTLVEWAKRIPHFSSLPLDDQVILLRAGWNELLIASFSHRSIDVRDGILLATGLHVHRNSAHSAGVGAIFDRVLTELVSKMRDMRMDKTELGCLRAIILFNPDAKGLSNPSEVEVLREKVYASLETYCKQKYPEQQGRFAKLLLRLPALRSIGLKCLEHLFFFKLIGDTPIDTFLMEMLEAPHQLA
From the text: as §2

RXRγ = target: T5, RXRγ (Homo sapiens, UniProt P48443); test: as above; conditions: 10 nM [3H]-9CRA; read-out: RXR Binding Affinity Ki (nM) RXRγ
T5 construct: an expression construct including a full length RXRα, RXRβ, or RXRy; expressed in transfected cells; host or cells: CV-1
T5 sequence (P48443 1-463): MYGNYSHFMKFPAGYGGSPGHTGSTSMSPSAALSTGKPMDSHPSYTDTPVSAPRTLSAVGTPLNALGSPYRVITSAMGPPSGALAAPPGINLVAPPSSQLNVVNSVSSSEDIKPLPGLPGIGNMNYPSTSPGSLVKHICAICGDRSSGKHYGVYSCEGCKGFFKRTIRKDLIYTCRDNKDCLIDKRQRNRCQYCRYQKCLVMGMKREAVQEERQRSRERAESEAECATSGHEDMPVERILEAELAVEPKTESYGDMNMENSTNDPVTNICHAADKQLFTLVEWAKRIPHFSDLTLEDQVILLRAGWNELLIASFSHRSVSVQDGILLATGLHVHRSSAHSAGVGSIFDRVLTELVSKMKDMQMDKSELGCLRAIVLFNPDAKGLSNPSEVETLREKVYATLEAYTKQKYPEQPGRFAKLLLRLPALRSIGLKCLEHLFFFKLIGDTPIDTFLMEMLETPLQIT
From the text: as §2

RARα = target: T6, RARα (Homo sapiens, UniProt P10276); test: Competitive displacement of [3H]-ATRA from purified receptor; conditions: 5 nM [3H]-ATRA; read-out: RAR Binding Affinity Ki (nM) RARα
T6 construct: made in house; host or cells: SF21 insect cells (baculovirus)
T6 sequence (P10276 whole entry, species assumed): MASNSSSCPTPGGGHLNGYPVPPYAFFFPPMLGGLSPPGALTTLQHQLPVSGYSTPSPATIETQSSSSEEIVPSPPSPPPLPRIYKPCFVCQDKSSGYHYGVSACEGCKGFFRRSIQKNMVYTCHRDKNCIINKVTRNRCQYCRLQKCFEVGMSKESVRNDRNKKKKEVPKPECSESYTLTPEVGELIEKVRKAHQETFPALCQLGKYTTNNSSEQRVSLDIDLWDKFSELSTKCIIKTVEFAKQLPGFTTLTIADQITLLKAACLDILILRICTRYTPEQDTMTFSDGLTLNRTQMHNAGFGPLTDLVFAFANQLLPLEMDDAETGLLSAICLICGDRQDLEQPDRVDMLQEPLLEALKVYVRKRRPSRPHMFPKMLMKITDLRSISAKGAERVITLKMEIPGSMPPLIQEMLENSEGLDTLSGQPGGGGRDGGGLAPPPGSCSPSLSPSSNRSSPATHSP
From the text: as §2

RARβ [6] = target: T7, RARβ (Homo sapiens, UniProt P10826); test: as above; conditions: 5 nM [3H]-ATRA; read-out: RAR Binding Affinity Ki (nM) RARβ
T7 construct: made in house; host or cells: SF21 insect cells (baculovirus)
From the text: as §2
T7 sequence (P10826 whole entry, species assumed, the tested form may be a part): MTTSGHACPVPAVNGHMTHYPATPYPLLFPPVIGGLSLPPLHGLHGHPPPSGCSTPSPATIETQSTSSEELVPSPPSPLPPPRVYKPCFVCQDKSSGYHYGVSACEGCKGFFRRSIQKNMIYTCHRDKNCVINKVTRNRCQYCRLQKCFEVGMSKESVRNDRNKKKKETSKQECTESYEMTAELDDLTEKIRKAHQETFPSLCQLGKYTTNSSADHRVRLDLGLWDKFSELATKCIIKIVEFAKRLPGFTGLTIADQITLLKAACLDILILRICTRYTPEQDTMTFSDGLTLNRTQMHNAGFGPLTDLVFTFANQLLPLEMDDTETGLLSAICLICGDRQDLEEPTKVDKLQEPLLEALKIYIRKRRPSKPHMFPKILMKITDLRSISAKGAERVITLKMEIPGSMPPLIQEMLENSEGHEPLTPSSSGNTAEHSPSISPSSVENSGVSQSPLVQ

RARγ [7] = target: RARγ (Homo sapiens, UniProt P13631); test: as above; conditions: 5 nM [3H]-ATRA; read-out: RAR Binding Affinity Ki (nM) RARγ
From the text: as §2
Target sequence in this assay (P13631 whole entry, species assumed): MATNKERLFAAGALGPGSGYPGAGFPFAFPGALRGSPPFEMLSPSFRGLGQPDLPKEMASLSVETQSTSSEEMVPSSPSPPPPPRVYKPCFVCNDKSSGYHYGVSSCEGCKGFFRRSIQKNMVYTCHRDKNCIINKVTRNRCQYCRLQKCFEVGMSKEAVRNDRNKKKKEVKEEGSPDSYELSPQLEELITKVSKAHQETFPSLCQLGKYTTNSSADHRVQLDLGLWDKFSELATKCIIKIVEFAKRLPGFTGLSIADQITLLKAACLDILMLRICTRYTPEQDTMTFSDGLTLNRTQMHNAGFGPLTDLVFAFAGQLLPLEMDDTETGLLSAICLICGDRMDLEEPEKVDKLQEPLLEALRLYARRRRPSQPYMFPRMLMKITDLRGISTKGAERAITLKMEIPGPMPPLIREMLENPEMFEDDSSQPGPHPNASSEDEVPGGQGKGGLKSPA

PPARy/RXR = test: Permissive heterodimer transactivation assay, CV-1 cells, 3x(rAOX/DR1)-tk-Luc; assay type: cell-based; conditions: 20 hr, luciferase vs rosiglitazone
From the text: For PPARy: CV-1 cells were transfected with 3x(rAOX/DR1)-tk-Luc reporter gene and an expression vector for PPARy. For FXR:CV-1 cells were transfected with 3x(IBABP/IRI)-tk-Luc reporter gene and vectors for FXR and RXRα. For LXR:CV-1 cells were transfected with 3x(PLTP/LXRE)-tk-Luc reporter gene with vectors for LXRα or LXRβ. For Nurr1: COS7 cells were transfected with 3xNBRE-tk-luc reporter gene and full length Nurr-1 with or without full-length RXRα plasmid. […] Luciferase data were normalized to co-transfected β-gal activity. Luciferase activity was expressed as percent of maximal activity obtained using specific agonists. Rosiglitazone (PPARy), GW4064 (FXR), T0901317 (LXR).

| Structure (SMILES) | Cmax [1] | circulating thyroxine levels [2] | plasma levels of TSH [2] | concentration with marginal activity detected [3] | EC50 (RARβ [4]) | EC50 (RARγ [5]) | Ki (RXRα) | Ki (RXRβ) | Ki (RXRγ) | Ki (RARα) | Ki (RARβ [6]) | Ki (RARγ [7]) | activation of PPARy/RXR heterodimer (PPARy/RXR) |
| --- | --- | --- | --- | --- | --- | --- | --- | --- | --- | --- | --- | --- | --- |
| CC(/C=C/[C@@H]1C[C@]1(C)c1ccc2c(c1)C(C)(C)CCC2(C)C)=C\C(=O)O [IRX4204, 3,7-dimethyl-6(S),7(S)-methano,7-[1,1,4,4-tetramethyl-1,2,3,4-tetrahydronaphth-7-yl]2(E),4(E) heptadienoic acid] | 0.219 µM | reduction in circulating thyroxine levels | reduction in plasma levels of TSH | 1 pM |  |  |  |  |  |  |  |  |  |
| CCOC(=O)/C=C(C)/C=C/[C@@H]1C[C@]1(C)c1ccc2c(c1)C(C)(C)CCC2(C)C [IRX4204EE, 3,7-dimethyl-6(S),7(S)-methano,7-[1,1,4,4-tetramethyl-1,2,3,4-tetrahydronaphth-7-yl]2(E),4(E) heptadienoic ethyl ester] |  |  |  |  | > 1000 nM | > 1000 nM | > 1000 nM | > 1000 nM | > 1000 nM | > 1000 nM | > 1000 nM | > 1000 nM | very little activity |
